Experiments:
in vitro = conditions: human, microsomes; for CLint(mic) / Remaining (T = 60 min): 3 μM; for Remaining (T = 60 min): 1 h; for CLint scaled at 3 μM: CLint(liver)
Method: Microsome stability was determined in human, rat, and mouse, liver microsomes. Compound at 3 μM final concentration along with 0.5 mg/mL microsome protein and 1 mM NADPH was incubated for 0, 5, 15, 30 and 60 min. As a negative control, test compound was incubated with microsomes in the absence of NADPH. Samples were quenched with methanol and centrifuged for 25 min at 2500 rpm to precipitate proteins. Supernatants were analyzed (N=3) by LC-MS/MS. The In peak area ratio (compound peak area/internal standard peak area) was plotted against time and the gradient of the line determined the elimination rate constant [k=(−1)(slope)].
R^2 is the correlation coefficient of the linear regression for the determination of kinetic constant. T1/2 is the half life and CLint (mic) is the intrinsic clearance. CLint(liver)=CLint (mic)*mg microsomal protein/g liver weight*g liver weight/kg body weight. Liver weight/kg body weight is 20 g/kg for human.

[1] = test system: chaperone-mediated autophagy (CMA) in NIH 3T3 fibroblasts; assay: Photoswitchable KFERQ-Dendra CMA reporter assay in NIH 3T3 fibroblasts; format: cell-based
Method: The photoactivatable CMA reporter assay was constructed by inserting a sequence of 21 amino acid of Ribonuclease A bearing the CMA-targeting motif in the N-terminus multicloning site of the photoactivatable protein mCherryl or the photoswitchable protein Dendra 2.
NIH 3T3 fibroblasts were stably transduced with a photoconvertible CMA reporter, KFERQ-Dendra. were photoswitched by exposure to a […] (constant current) LED (Norlux, 405 nm) for 10 minutes and at the desired times fixed in 3% formaldehyde. Test cells were exposed to the indicated concentrations of the compounds for 12 hours (FIG. 3A) or 24 hours (FIG. 3B). Cells were imaged using high content microscopy (Operetta, Perkin Elmer) or by capturing images with an Axiovert 200 fluorescence microscope (Zeiss) with apotome and equipped with a 63/1.4 NA oil objective lens and red (ex. 570/30 nm, em. 615/30 nm), cyan (ex. 365/50 nm and em. 530/45 nm) and green (ex. 475/40 nm and em. 535/45 nm) filter sets (Chroma). Images were acquired with a high-resolution CCD camera after optical sectioning through the apotome. CMA activity measured as the average number of fluorescent puncta (CMA active lysosomes) per cell. Values are expressed relative to values in untreated cells that were assigned an arbitrary value of 1 and are mean of >2,500 cells counted per condition. The S.D. in all instances was <0.01% mean value. Table 2 provides a comparison of compounds CA39.1 and its comparative example CA39 and CA77.01 and its comparative example CA77.

half-life at 3 μM (in vitro) [min]	CLint(mic) (in vitro) [µL/min/mg]	Remaining (T = 60 min) (in vitro) [%]	CLint scaled at 3 μM (in vitro) [mL/min/kg]	SMILES	CMA activity (fluorescent puncta per cell, relative to untreated cells = 1) ([1]; Time 5)	CMA activity (fluorescent puncta per cell, relative to untreated cells = 1) ([1]; Time 10)	CMA activity (fluorescent puncta per cell, relative to untreated cells = 1) ([1]; Time 20)	CMA activity (fluorescent puncta per cell, relative to untreated cells = 1) ([1]; Time 30)
20.6	67.2	10.8	60.5	CC(=O)Nc1ccc(-c2cnc3cc(Cl)ccc3n2)cc1 [CA77.1, N-(4-(6-chloroquinoxalin-2-yl)phenyl)acetamide]	2.53	3.365	5.858	5.889
34	40.8	25.9	36.7	CC(=O)Nc1ccc(C2=Nc3ccc(Cl)cc3OC2)cc1 [CA77, reference compound]	2.667	3.331	5.005	5.471

From patent US11834424B2, “Compounds useful as chaperone-mediated autophagy modulators” (ALBERT EINSTEIN COLLEGE OF MEDICINE, priority 2018, dated 2023)
